Source: patent publication US10226453B2, “3-(1H-indol-2-yl)-1H-pyrazolo[4,3-B]pyridines and therapeutic uses thereof” (Samumed, LLC, priority 2015, dated 2019)

How the values were obtained:
SW480 colon cancer cells = assay: Cell viability assay (CellTiter-Blue), SW480 colon cancer cells; type: cell-based; details: Homo sapiens, 96 h, four days; for EC50: CellTiter-Blue; for inhibition at 10 µM: given where EC50 >10 μM, read-out: percent inhibition at 10 μM
Method in brief: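 SW480 cells (~2×10^3/well) exposed four days at 37 °C to 8-point 1:3 dilutions, 10 μM down to 0.0045 μM. Viability from resazurin reduction (CellTiter-Blue, ~3 h, Ex 560/Em 590); EC50 by non-linear regression, or percent inhibition at 10 μM where EC50 exceeds 10 μM.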

[1] = tested on: primary human mesenchymal stem cells (hMSCs); assay: Induction of chondrogenesis in primary human mesenchymal stem cells (hMSCs), nodule count; type: cell-based; details: 144 h, 6 days; for EC50: concentration required to induce 50% levels of chondrogenesis of TGF-β3 control, read-out: Conc (nM) of 50% TGF-β3 activity; for Emax: relative to TGF-β3 (10 ng/mL) positive control, read-out: Max. Activity as % TGF-β3 activity
Experimental: Representative compounds were screened using primary human mesenchymal stem cells (hMSCs) to determine their ability to induce chondrogenesis (process by which cartilage is developed).
Primary human mesenchymal stem cells (hMSCs) were purchased from Lonza (Walkersville, Md.) and expanded in Mesenchymal Stem Cell Growth Media (Lonza). Cells between passage 3 and 6 were used for the experiments.
Each compound was dissolved in DMSO as a 10 mM stock and used to prepare compound source plates. Serial dilution (1:3, 6-point dose-response curves from 2700 nM to 10 nM) and compound transfer was performed using the ECHO 550 (Labcyte, Sunnyvale, Calif.) into 96-well clear bottom assay plates (Greiner Bio-One) with appropriate DMSO backfill for a final DMSO concentration of 0.03%. hMSCs were plated at 20,000 cells/well in 250 μL/well Incomplete Chondrogenic Induction Medium (Lonza; DMEM, dexamethasone, ascorbate, insulin-transferrin-selenium [ITS supplement], gentamycin-amphotericin [GA-1000], sodium pyruvate, proline and L-glutamine). TGF-β3 (10 ng/mL) was used as a positive control for differentiation while negative control wells were treated with 75 nL DMSO for normalization and calculating EC50 values. Cells were incubated at 37° C. and 5% CO2 for 6 days. To image chondrogenic nodules, the cells were fixed using 4% formaldehyde (Electron Microscopy Sciences), and stained with 2 μg/mL Rhodamine B (Sigma-Aldrich) and 20 μM Nile Red (Sigma-Aldrich) [Johnson K., et. al, A Stem Cell-Based Approach to Cartilage Repair, Science, (2012). 336(6082), 717-721]. The nodules imaged (4 images per well at 4× magnification) by excitation at 531 nm and emission at 625 nm and quantified using the CellInsight CX5 (Thermo Scientific). Number of nodules in each well was normalized to the average of 3 DMSO treated wells on the same plate using Excel (Microsoft Inc.). The normalized averages (fold change over DMSO) of 3 replicate wells for each compound concentration were calculated. Due to solubility limitations of some of the compounds, curve fitting was incomplete leading to inaccurate EC50 determinations.
Using TGF-β3 as a positive control, the concentration of representative compounds required to induce 50% levels of chondrogenesis is reported. In addition, the maximum activity of each compound and the respective dose that each compound reached maximum chondrogenesis activity is reported.

| Structure (SMILES) | EC50 (SW480 colon cancer cells) [nM] | EC50 [1] [nM] | Emax [1] [%] | inhibition at 10 µM (SW480 colon cancer cells) [%] |
| --- | --- | --- | --- | --- |
| Cc1ccncc1-c1ccc2[nH]nc(-c3cc4c(N5CCN(C)CC5)cccc4[nH]3)c2n1 [Compound 229, 3-(4-(4-Methylpiperazin-1-yl)-1H-indol-2-yl)-5-(4-methylpyridin-3-yl)-1H-pyrazolo[4,3-b]pyridine] | 4740 | 10 | 63 |  |
| CN1CCN(c2cccc3[nH]c(-c4n[nH]c5ccc(-c6cncc(NC(=O)c7ccccc7)c6)nc45)cc23)CC1 [Compound 235, N-(5-(3-(4-(4-Methylpiperazin-1-yl)-1H-indol-2-yl)-1H-pyrazolo[4,3-b]pyridin-5-yl)pyridin-3-yl)benzamide] | 3910 |  | 19 |  |
| CN1CCN(c2cccc3[nH]c(-c4n[nH]c5ccc(-c6cncnc6)nc45)cc23)CC1 [Compound 251, 3-(4-(4-Methylpiperazin-1l-yl)-1H-indol-2-yl)-5-(pyrimidin-5-yl)-1H-pyrazolo[4,3-b]pyridine] | > 10000 | 100 | 67 | 15.3 |
| CN(C)Cc1cncc(-c2ccc3[nH]nc(-c4cc5ccccc5[nH]4)c3n2)c1 [Compound 265, 1-(5-(3-(1H-Indol-2-yl)-1H-pyrazolo[4,3-b]pyridin-5-yl)pyridin-3-yl)-N,N-dimethylmethanamine] | 2940 |  | 21 |  |
| FC1(F)CCN(Cc2cncc(-c3ccc4[nH]nc(-c5cc6ccccc6[nH]5)c4n3)c2)C1 [Compound 278, 5-(5-((3,3-Difluoropyrrolidin-1-yl)methyl)pyridin-3-yl)-3-(1H-indol-2-yl)-1H-pyrazolo[4,3-b]pyridine] | 590 | 2700 | 293 |  |
| CN(C)c1cncc(-c2ccc3[nH]nc(-c4cc5c(-c6ccoc6)cccc5[nH]4)c3n2)c1 [Compound 315, 5-(3-(4-(Furan-3-yl)-1H-indol-2-yl)-1H-pyrazolo[4,3-b]pyridin-5-yl)-N,N-dimethylpyridin-3-amine] | 1910 | 2700 | 80 |  |
| c1cc(-c2ccoc2)c2cc(-c3n[nH]c4ccc(-c5cncc(CNCC6CCCC6)c5)nc34)[nH]c2c1 [Compound 333, 1-Cyclopentyl-N-((5-(3-(4-(furan-3-yl)-1H-indol-2-yl)-1H-pyrazolo[4,3-b]pyridin-5-yl)pyridin-3-yl)methyl)methanamine] | 3450 |  | 25 |  |
| CN(C)CCNc1cc(F)cc(-c2cccc3[nH]c(-c4n[nH]c5ccc(-c6cccnc6)nc45)cc23)c1 [Compound 452, N^1-(3-Fluoro-5-(2-(5-(pyridin-3-yl)-1H-pyrazolo[4,3-b]pyridin-3-yl)-1H-indol-4-yl)phenyl)-N^2,N^2-dimethylethane-1,2-diamine] | 290 | 2700 | 67 |  |
| CN(C)CCNc1cc(F)cc(-c2cccc3[nH]c(-c4n[nH]c5ccc(-c6cncc(CN7CCCCC7)c6)nc45)cc23)c1 [Compound 463, N^1-(3-Fluoro-5-(2-(5-(5-(piperidin-1-ylmethyl)pyridin-3-yl)-1H-pyrazolo [4,3-b]pyridin-3-yl)-1H-indol-4-yl)phenyl)-N^2,N^2-dimethylethane-1,2-diamine] | 1180 |  | 48 |  |
| CN(C)CCNc1cc(F)cc(-c2cccc3[nH]c(-c4n[nH]c5ccc(-c6cncnc6)nc45)cc23)c1 [Compound 475, N^1-(3-Fluoro-5-(2-(5-(pyrimidin-5-yl)-1H-pyrazolo[4,3-b]pyridin-3-yl)-1H-indol-4-yl)phenyl)-N^2,N^2-dimethylylethane-1,2-diamine] | 1300 | 10 | 181 |  |
| CN(C)CCNc1cc(F)cc(-c2cccc3[nH]c(-c4n[nH]c5ccc(-c6ccccn6)nc45)cc23)c1 [Compound 476, N^1-(3-Fluoro-5-(2-(5-(pyridin-2-yl)-1H-pyrazolo[4,3-b]pyridin-3-yl)-1H-indol-4-yl)phenyl)-N^2,N^2-dimethylethane-1,2-diamine] | 5900 |  | 42 |  |
| Cc1ccncc1-c1ccc2[nH]nc(-c3cc4c(-c5cc(F)cc(CNS(C)(=O)=O)c5)cccc4[nH]3)c2n1 [Compound 481, N-(3-Fluoro-5-(2-(5-(4-methylpyridin-3-yl)-1H-pyrazolo[4,3-b]pyridin-3-yl)-1H-indol-4-yl)benzyl)methanesulfonamide] | 592 | 900 | 143 |  |
| c1cc(-c2ccncc2)c2cc(-c3n[nH]c4ccc(-c5cncc(OCCN6CCCC6)c5)nc34)[nH]c2c1 [Compound 606, 3-(4-(Pyridin-4-yl)-1H-indol-2-yl)-5-(5-(2-(pyrrolidin-1-yl)ethoxy)pyridin-3-yl)-1H-pyrazolo[4,3-b]pyridine] | 1880 | 900 | 74 |  |
| O=C(CC1CCNCC1)Nc1cncc(-c2ccc3[nH]nc(-c4cc5c(-c6ccccn6)cccc5[nH]4)c3n2)c1 [Compound 621, 2-(Piperidin-4-yl)-N-(5-(3-(4-(pyridin-2-yl)-1H-indol-2-yl)-1H-pyrazolo[4,3-b]pyridin-5-yl)pyridin-3-yl)acetamide] | > 10000 |  | 8 | 51 |
| c1cc(N2CCCCC2)c2cc(-c3n[nH]c4ccc(-c5cncc(OC6CCNCC6)c5)nc34)[nH]c2c1 [Compound 636, 3-(4-(Piperidin-1-yl)-1H-indol-2-yl)-5-(5-(piperidin-4-yloxy)pyridin-3-yl)-1H-pyrazolo[4,3-b]pyridine] | 3940 |  | 34 |  |
